Results on 12 compounds are retold here after PubChem BioAssay (NCI).

“And” between values parts separate entries of the source, which are not always exact repeats. Identical values can stand only once.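 In this assay, cells in 96-well plates receive the compound at five concentrations for 48 hours. Endpoints are linearly interpolated between the surrounding concentrations. GI50 is the concentration that inhibits growth by half. TGI: total growth inhibition.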

Assay in all cases: NCI tumour cell line growth inhibition, 48 h
For assay [1], the system named is OVCAR-8 ovarian.
In assay [2] the test system is SR leukemia.
Assay [3] has as its system SN12C renal.
The subject of assay [4] is PC-3 prostate.
In assay [5] the test system is HL-60(TB) leukemia.
The test system of assay [6] is HS 578T breast.
For assay [7], the system named is MDA-MB-435.
In assay [8] the test system is SNB-75 CNS.
Assay [9] relates to T-47D breast.
Assay [10] concerns MOLT-4 leukemia.

In the case of `CN1CCN(C(=O)c2ccc(NC(=O)Nc3ccc(-c4nc(N5CCOCC5)c5cccn5n4)cc3)cc2)CC1`, the GI50 in assay [1] is 0.0486 µM; in assay [2], 0.0465 µM; in [3] it was 0.0331 µM; in assay [4] it was 0.0488 µM; in assay [5], 0.101 µM; in [6] it was 0.0177 µM. Besides, the GI50 in [7] was 0.032 µM; in assay [8], 0.0134 µM; in [9], 0.0126 µM; in [10], 0.0443 µM. The TGI was above 100 µM in assay [1]; 8.7 µM in assay [2]; 11.8 µM in assay [3]; 19.3 µM in [4]; 5.21 µM in assay [5]; 0.082 µM in [6]. Moreover, the TGI in [7] was determined as 0.41 µM; in assay [8] it was 0.0684 µM; in [9] it was 0.0567 µM; in assay [10], 2.11 µM.
Take `COc1cc(Cl)c(CC(=O)c2c[nH]c3ccccc23)cc1OC`: the TGI in assay [1] was above 100 µM; in [2], above 100 µM; in [3] it was above 100 µM; in assay [4], above 100 µM; in assay [5], above 67.3 µM; in [6], above 100 µM. Further, the TGI in assay [7] is above 100 µM; in assay [8], 31.5 µM; in assay [9], above 100 µM; in assay [10], above 100 µM.
Regarding `N#CC1=C(N)NC(N2CCOCC2)=NC12Nc1ccccc1O2` (stereo not given), the GI50 in [1] was 80.6 µM; in [2], 27.7 µM; in assay [3], 96.4 µM; in [4] it was 31.8 µM; in assay [5], 48.3 µM; in assay [6], 23.6 µM. In addition, the GI50 was 23.5 µM in [7], above 100 µM in assay [8], 80.3 µM in [9] and 43 µM in assay [10]. For the same compound, the TGI is above 100 µM in assay [1]; above 100 µM in assay [2]; above 100 µM in assay [3]; above 100 µM in assay [4]; above 100 µM in assay [5]; 68.1 µM in assay [6]. Besides, the TGI was 70.2 µM in assay [7], above 100 µM in assay [8], above 100 µM in assay [9] and above 100 µM in [10].
For `COc1cc(/C=C/C(=O)CC(=O)/C=C/c2cc(OC)c(O)c(OC)c2)cc(OC)c1O`, the GI50 is 18 µM in assay [1]; 7.56 µM in assay [2]; 57.3 µM in assay [3]; 5.73 µM in assay [6]; 5.1 µM in assay [10]. For the same compound, the TGI in [1] was 25 µM and 61.3 µM; in [2], 25 µM and > 100 µM; in [3] it was 23.7 µM and > 100 µM; in assay [4] it was 25 µM and 37.8 µM; in assay [5], 25 µM and 42.6 µM; in assay [6], 18 µM and 53.8 µM. The TGI is 16.3 µM and 24 µM in [7]; 61.4 µM in assay [8]; 21.5 µM in assay [9]; 25 µM and 84.4 µM in assay [10].
`COC(=O)CC1(O)C=CC(=O)C=C1`: the TGI in assay [1] is 17.3 µM; in assay [2] it was above 100 µM; in assay [3], 37.6 µM; in assay [4] it was 6.35 µM; in assay [5], above 22.6 µM; in assay [6], 39.4 µM. Besides, the TGI in [7] came out at 21.8 µM; in assay [8], 14.2 µM; in assay [9] it was 25.7 µM; in [10], 7.25 µM.
For the compound `FC(F)c1ncc(-c2ccc(C(F)(F)F)cc2)c(NC2CCCCCC2)n1`, the GI50 in [1], in assay [2], in assay [3], in [4], in [5] and in [6] was above 10 µM throughout. Moreover, the GI50 in assay [7], in [8], in assay [9] and in [10] was above 10 µM each time. Further, the TGI in assay [1], in assay [2], in [3], in assay [4], in assay [5] and in assay [6] was above 10 µM in each case. For the same compound, the TGI in assay [7], in assay [8], in assay [9] and in assay [10] was above 10 µM throughout.
Take `CCCCC#Cc1c(I)n(C2OC(CO[Si](C)(C)C(C)(C)C)C3OC(C)(C)OC32)c(=O)n(C(=O)c2ccccc2)c1=O` (stereo not given): the GI50 in assay [1] is 5.61 µM; in assay [2] it was 1.69 µM; in assay [3], 19.3 µM; in assay [4], 10.3 µM; in assay [5], 10.1 µM; in [6], 7.17 µM. Moreover, the GI50 in assay [7] was 1.77 µM; in assay [8], 14.1 µM; in assay [9] it was 4.14 µM; in assay [10], 5.79 µM. The TGI in assay [1] was 18.6 µM; in [2] it was 9.35 µM; in assay [3] it was 45.4 µM; in assay [4] it was 22.9 µM; in assay [5], 28.6 µM; in assay [6] it was 43.6 µM. For the same compound, the TGI is 3.87 µM in assay [7], 27.5 µM in [8], 19.7 µM in assay [9] and 23.6 µM in assay [10].
On to `Cc1cc(=O)[nH]c(N/N=C/c2ccccc2O)n1`, for which the GI50 in assay [1] is 3.1 µM; in assay [2], 6.22 µM; in assay [3], 18.7 µM; in assay [4], 4.95 µM; in assay [5], 4.26 µM; in [6] it was above 100 µM. The GI50 in [7] was 18.7 µM; in assay [8] it was 71.5 µM; in assay [9] it was 3.74 µM; in [10], 4.95 µM. Moreover, the TGI in [1] is above 100 µM; in assay [2], above 100 µM; in assay [3], above 100 µM; in [4], above 100 µM; in [5], 50.1 µM; in assay [6] it was above 100 µM. Further, the TGI in [7], in [8], in assay [9] and in assay [10] was above 100 µM throughout.
Take `Nc1c(C(=O)c2cccc(C(O)CO)c2)cnn1-c1ccc(F)cc1` (stereo not given): the GI50 is above 25 µM in assay [1]; above 25 µM in assay [2]; above 25 µM in assay [3]; above 25 µM in assay [4]; above 12.9 µM in assay [5]; above 25 µM in [6]. Further, the GI50 in assay [7], in [8], in [9] and in assay [10] was above 25 µM each time. Moreover, the TGI in [1], in assay [2], in assay [3], in assay [4], in assay [5] and in assay [6] was above 25 µM throughout. For the same compound, the TGI in assay [7], in [8], in assay [9] and in [10] was above 25 µM throughout.
`COc1ccc2nc(C)cc(Sc3nc4ccccc4s3)c2c1`: the GI50 in assay [1] was 2.66 µM; in assay [2] it was 0.432 µM; in assay [3] it was 1.7 µM; in assay [4], 0.288 µM; in assay [5], 0.533 µM; in assay [6], 0.923 µM. The GI50 in assay [7] was 1.76 µM; in assay [8], 0.885 µM; in [9], 0.881 µM; in assay [10] it was 1.25 µM. The TGI in [1] stood at 10.9 µM; in assay [2], 2.46 µM; in assay [3] it was 7.06 µM; in assay [4] it was 3 µM; in assay [5], 2.63 µM; in assay [6], 3.57 µM. Also, the TGI in assay [7] was found to be 5.39 µM; in [8], 5.12 µM; in [9], 11 µM; in [10] it was 7.92 µM.
In the case of `CCN(CC)CCCNCc1cc(-c2ccccc2)nc2cc(Cl)ccc12`, the GI50 is 5.81 µM in assay [1]; 0.716 µM in [2]; 4.69 µM in [3]; 4.37 µM in assay [4]; 1.78 µM in assay [5]; 2.01 µM in assay [6]. Further, the GI50 in [7] was 1.84 µM; in assay [8], 1.57 µM; in assay [9], 1.7 µM; in assay [10], 2.12 µM. The TGI in assay [1] is 18.8 µM; in assay [2], 5.38 µM; in assay [3], 18.2 µM; in assay [4], 18.4 µM; in assay [5], 4.19 µM; in assay [6] it was 5.29 µM. The TGI in assay [7] stood at 3.81 µM; in assay [8], 4.34 µM; in assay [9], 4.73 µM; in assay [10] it was 5.46 µM.
Regarding `CN1CCN(Cc2ccc(NC(=O)c3[nH]ncc3Nc3ncnc4[nH]ccc34)cc2)CC1`, the GI50 in assay [1] was 0.387 µM; in [2] it was 0.229 µM; in assay [3], 0.333 µM; in [4] it was 0.372 µM; in [5], 0.27 µM; in assay [6], 0.197 µM. Moreover, the GI50 is 0.298 µM in assay [7], 0.0393 µM in assay [8], 0.365 µM in assay [9] and 0.142 µM in [10]. Also, the TGI in assay [1] is 3.09 µM; in assay [2], 0.708 µM; in [3] it was above 100 µM; in [4], above 100 µM; in assay [5], 0.626 µM; in [6] it was 0.98 µM. Further, the TGI in assay [7] was 1.71 µM; in [8], 0.371 µM; in assay [9], 18.7 µM; in assay [10], 0.598 µM.
